Experimental findings from US20040210959A1, “A Novel Method for Production of Transformed Dihaploid Corn Plants” (MONSANTO TECHNOLOGY LLC, priority 2003, published 2004) are described below.

In experiment [1] the test system is corn line D haploid callus. Put plainly: Chromosome doubling of haploid callus with colchicine; ploidy of regenerated plants by flow cytometry. The class given is cell-based. Particulars: 3 days; for Diploid plants / Haploid plants / Tetraploid plants: 0.025% colchicine. From the text: When a sufficient amount of transgenic callus has grown (approximately 0.25 g), the haploid callus can be doubled to produce dihaploid callus. The callus can be transferred to a 100×20 mm petri plate that contains a structure for supporting callus in a liquid medium such as three filter papers or 2 pieces of 100% acrylic felt. Those of skill in the art are aware of the numerous modifications to liquid media for supporting cultured tissues. To the Petri dish can be added a suitable culture medium lacking selection agents but containing 0.025% colchicine or other chromosome doubling agents such as Oryzalin, pronamide, or APM (amiprophos-methyl) as known to one of skill in the art (i.e., Wan et al., Theor. Appl. Genet., 81: 205-211, 1991). Enough medium and chromosome doubling agent is added to the Petri dish to keep the callus support moist, but not so much that it covers the callus. The callus is then incubated at 28° C. for 3 days in the dark.
After the co-cultivation, the callus pieces were transferred onto two pieces of 2cm^2×1 mm thick 100% acrylic felt with approximately 25 mL liquid MSW57 (Table 3) supplemented with 750 mg/L carbenicillin and 100 mg/L paromomycin in petri dishes (100 mm×25 mm) with 16 calli per plate. The plates were kept in a dark culture room at 28° C. for approximately 7-10 days after which the old medium was removed by aspiration and fresh selection medium was added to the plates. After two 10-day selection periods, the old medium was removed by aspiration and replaced with fresh MSW57 medium containing 0.025% colchicine. The tissues remained on the colchicine medium for 3 days after which the colchicine medium was removed by aspiration and replaced with fresh selection medium containing 750 mg/L carbenicillin and 100 mg/L paromomycin.
After an additional two 10-day selection periods on selection medium, the cultures were moved to a culture room with 16-h light/8-h dark photoperiod at 28° C. and the liquid medium was replaced with liquid MS-6BA medium (Table 3) with 100 mg/L paromomycin and 500 mg/L carbenicillin. After 7 days, the callus pieces were transferred onto the second regeneration medium, a hormone-free MS-based medium (MSOD, Table 3) with 100 mg/L paromomycin in petri dishes (100 mm×25 mm). In another 2 weeks, the callus pieces that had shoots regenerated or were still alive were transferred onto the same hormone-free medium in Phytatrays for further growth. Regenerated plants (R0) when they reached to the top of Phytatrays and had one or more healthy roots were moved to soil in peat pots in a growth chamber. In 7 to 10 days, they were transplanted into 12-in pots after determining by flow cytometry that they were doubled haploids. Using this procedure, 23 transgenic events were produced from a total of 528 pieces of callus exposed to Agrobacterium and selection on paromomycin (Table 6).
In general terms: A flow cytometer gives signals particle by particle.

Experiment [2] has as its system immature embryos and callus from inbred X KHI/pehA crosses. The experiment is described as follows: Negative selection of pehA-containing immature embryos/callus on callus induction medium with glyceryl glyphosate. Particulars: 10 to 14 days on callus induction medium; glyceryl glyphosate 0 to 5 mM. The experiment is classed as cell-based, corn. From the text:
An efficient identification of corn haploid immature embryos, and callus derived from them, can be achieved by using the negative selectable marker gene pehA (phosphonate monoesterase). Cells that express the pehA gene convert the non-toxic glycerol glyphosate to toxic glyphosate and subsequently die. It is understood, however, that other negative selectable marker genes such as cytosine deaminase (which converts 5-fluorocytosine to 5-fluorouracil, which is toxic to cell growth [Plant Cell Reports 2001; 20:738-743]) may also be used equally effectively.
Inbred lines selected for the production of haploid immature embryos or callus can be pollinated with KHI that has been transformed with, and is homozygous for, the selectable marker gene pehA. After culturing on media containing glyceryl glyphosate, diploid (pehA containing) explants fail to grow, whereas maternal haploid explants produce callus typical of the maternal inbred.
Inbred lines selected for the production of haploid immature embryos or callus were pollinated with KHI that had been transformed with, and was homozygous for, the selectable marker gene pehA. The resulting ears were harvested when their embryos were 1.25 to 2.25 mm in size. Immature embryos were plated on suitable culture media to induce the desired type of callus. […]

`COc1cc2c(c(OC)c1OC)-c1ccc(OC)c(=O)cc1[C@@H](NC(C)=O)CC2` [colchicine]: the “doubling chromosomes of haploid callus” value in experiment [1] (corn line D haploid callus, MSW57 medium with 0.025% colchicine) is given as “effective in doubling chromosomes”. In addition, the Diploid plants in experiment [1] (haploid callus line S33-B2) is 67%; in experiment [1] (haploid callus line S41-A1), 50%; in experiment [1] (haploid callus line S42-B4), 33%; in experiment [1] (haploid callus line S43-B1), 50%; in experiment [1] (haploid callus line S49-B1), 100%. The Haploid plants in experiment [1] (haploid callus line S33-B2) is on record as 33%; in experiment [1] (haploid callus line S41-A1), 50%; in experiment [1] (haploid callus line S42-B4), 33%; in experiment [1] (haploid callus line S43-B1) it was 17%; in experiment [1] (haploid callus line S55-B1) it was 33%. The results for the Tetraploid plants in experiment [1] (haploid callus line S42-B4), in experiment [1] (haploid callus line S43-B1) and in experiment [1] (haploid callus line S55-B1) were 33%, 33% and 67%, respectively.
As for `O=C(O)CNCP(=O)(O)OCC(O)CO` (stereo not shown) [glyceryl glyphosate], in experiment [2], the “growth of diploid (pehA containing) immature embryos” value is reported as “failed to grow” and the “growth of maternal haploid immature embryos” value is listed as “produced callus typical of maternal inbred”.
